Data set [1] can be described thus: Solubility measurement in dilution solvent (PGMEA). The note with it: PGMEA added to 0.5 g compound, stirred 100 rpm, one hour, 25° C. Format: physicochemical. The protocol: Evaluation 2: Solubility Measurement Solubility of the compounds according to Synthesis Examples 11 to 21 and Comparative Synthesis Examples 1 to 6 were measured by adding a dilution solvent (PGMEA) to 0.5 g of each compound and respectively stirring the mixtures (MIXROTAR VMR-5, Iuchi Seiei Dou Co.) at 100 rpm for one hour at 25° C., and the results are shown in Table 2. Solubility Evaluation Criteria Greater than or equal to 10 wt % of a compound (a solute) based on a total amount of a diluting solvent was dissolved: ∘ Less than 10 wt % of a compound (a solute) based on a total amount of a diluting solvent was dissolved: X

Data set [2] can be described thus: Measurement of the shortest wavelength of full width at half maximum (FWHM) with respect to maximum absorption wavelength (absorption spectrum). Format: physicochemical. The following applies: 0.005 wt % in PGMEA; UV-1800. The text has this: The shortest wavelength of the full width at half maximum (FWHM) with respect to the maximum absorption wavelengths denotes a wavelength having the smallest value (a) among the energy widths (Δλ) of the maximum absorption wavelength (b) in the absorption spectrum of a particular phthalocyanine compound. (Refer to the FIGURE)
Evaluation 1: Measurement of the Shortest Wavelength of Full Width at Half Maximum (FWHM) with respect to Maximum Absorption Wavelength
The compounds according to Synthesis Example 1 to Synthesis Example 21 and Comparative Synthesis Example 1 to Comparative Synthesis Example 6 were prepared at a concentration of 0.005 wt % using a diluting solvent (PGMEA). Absorption spectra were obtained for each of the phthalocyanine compounds according to Synthesis Example 1 to […] and Comparative Synthesis Example 1 to Comparative Synthesis Example 6, and the results are shown in Table 1 (UV-1800, SHTMADZU).

SMILES strings stand for the structures.

On to `CC(C)(C)c1ccc(Oc2c(Cl)c(Cl)c3c(c2Cl)C2=NC/3=N\c3c4c(Cl)c(Cl)c(Oc5ccc(C(C)(C)C)cc5C(C)(C)C)c(Cl)c4c4[n]3[Zn][n]3/c(c5c(Cl)c(Cl)c(Oc6ccc(C(C)(C)C)cc6C(C)(C)C)c(Cl)c5/c3=N/C3=NC(=N\4)/c4c(Cl)c(Oc5ccc(C(C)(C)C)cc5C(C)(C)C)c(Cl)c(Cl)c43)=N\2)c(C(C)(C)C)c1` [Comparative Synthesis Example 2, reference compound], for which the Solubility entry in data set [1] is given as “X (Less than 10 wt % of a compound (a solute) based on a total amount of a diluting solvent was dissolved)”. Further, the “The shortest wavelength (nm) of full width at half maximum (FWHM) with respect to maximum absorption wavelength” value (“The shortest wavelength (nm)” for short) in data set [2] came to 624 nm.

`Cc1cccc(C)c1Oc1c(Cl)c(Cl)c2c(c1Cl)/C1=N/c3c4c(Cl)c(Cl)c(Cl)c(Cl)c4c4[n]3[Zn][n]3/c(c5ccccc5/c3=N/C2=N1)=N\C1=NC(=N\4)/c2c(Cl)c(Cl)c(Cl)c(Cl)c21` [Synthesis Example 7]: the Solubility result in data set [1] is “○”. For the same compound, the “The shortest wavelength (nm)” value in data set [2] turned out to be 618 nm.

Consider `CC(C)(C)c1ccccc1Oc1c(Cl)c(Cl)c2c(c1Cl)/C1=N/c3c4c(Cl)c(Cl)c(Cl)c(Cl)c4c4[n]3[Zn][n]3/c(c5ccccc5/c3=N/C2=N1)=N\C1=NC(=N\4)/c2c(Cl)c(Cl)c(Cl)c(Cl)c21` [Synthesis Example 4], for which the Solubility result in data set [1] is given as “○”. In data set [2], the “The shortest wavelength (nm)” value is recorded as 617 nm.

`CC(C)(C)COc1c(Cl)c(Cl)c2c(c1Cl)/C1=N/c3c4c(Cl)c(OCC(C)(C)C)c(Cl)c(Cl)c4c4[n]3[Zn][n]3/c(c5ccccc5/c3=N/C2=N1)=N\C1=NC(=N\4)/c2c(Cl)c(Cl)c(Cl)c(Cl)c21` [Synthesis Example 12]: in data set [1], the Solubility result is recorded as “○”. Besides, the “The shortest wavelength (nm)” value in data set [2] turned out to be 617 nm.

On to `Cc1ccc(Oc2c(Cl)c(Cl)c3c(c2Cl)/C2=N/c4c5c(Cl)c(Oc6ccc(C)cc6C(C)(C)C)c(Cl)c(Cl)c5c5[n]4[Zn][n]4/c(c6ccccc6/c4=N/C3=N2)=N\C2=NC(=N\5)/c3ccccc32)c(C(C)(C)C)c1` [Synthesis Example 11], for which the Solubility entry in data set [1] was “○”. In data set [2], the “The shortest wavelength (nm)” value was determined as 611 nm.

Regarding `CC(C)c1ccccc1Oc1c(Cl)c(Cl)c2c(c1Cl)/C1=N/c3c4c(Cl)c(Cl)c(Cl)c(Cl)c4c4[n]3[Zn][n]3/c(c5ccccc5/c3=N/C2=N1)=N\C1=NC(=N\4)/c2c(Cl)c(Cl)c(Cl)c(Cl)c21` [Synthesis Example 2], in data set [1], the Solubility entry was “○”. Besides, the “The shortest wavelength (nm)” value in data set [2] stood at 617 nm.

The values are drawn from patent US11852971B2, “Compound, photosensitive resin composition including the same, photosensitive resin layer, color filter and display device” (SAMSUNG SDI CO., LTD., priority 2019, dated 2023).
